# Assays:
# [1] = system: pigweed; experiment: Test D postemergence; assay type: in vivo, Amaranthus retroflexus; conditions: Amaranthus retroflexus, post-emergence, scale 0 to 100 (0 no effect, 100 complete control), read-out: Plant response rating, Pigweed
# Method in brief: (§1)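 Species were sown in silt loam for preemergence treatment, or grown in peat-based medium to the 1–4-leaf stage (2–18 cm) for postemergence sprays. Test chemicals were formulated in a non-phytotoxic solvent mixture with surfactant. After 7–21 days in a controlled environment, plants were rated visually against controls on a 0 (no effect) to 100 (complete control) scale.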
# [2] = system: canarygrass; experiment: Test D postemergence; assay type: in vivo, Phalaris minor; conditions: Phalaris minor, post-emergence, scale 0 to 100 (0 no effect, 100 complete control), read-out: Plant response rating, Canarygrass
# Method in brief: as §1
# [3] = system: speedwell; experiment: Test D preemergence; assay type: in vivo, Veronica persica; conditions: Veronica persica, pre-emergence
# Method in brief: as §1
# [4] = system: cocklebur; experiment: Test E preemergence; assay type: in vivo, Xanthium strumarium; conditions: for Cocklebur plant response rating: scale 0 to 100 (0 no effect, 100 complete control)
# Method in brief: (§2)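 Test chemicals formulated in a non-phytotoxic solvent mixture containing a surfactant were applied preemergence to seeds in silt loam soil or postemergence to plants at the 1- to 4-leaf stage in potting mix. After 14 to 21 days in a greenhouse, injury was visually rated against controls on a 0-100 scale (0 = no effect, 100 = complete control).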
# [5] = system: field violet; experiment: Test D postemergence; assay type: in vivo, Viola arvensis; conditions: Viola arvensis, post-emergence, scale 0 to 100 (0 no effect, 100 complete control), read-out: Plant response rating, Field Violet
# Method in brief: as §1
# [6] = system: field violet; experiment: Test D preemergence; assay type: in vivo, Viola arvensis; conditions: Viola arvensis, pre-emergence, scale 0-100, read-out: Plant response rating, Field Violet
# Method in brief: as §1
# [7] = system: Brazilian crabgrass; experiment: Test E postemergence; assay type: in vivo, Digitaria horizontalis; conditions: Digitaria horizontalis, post-emergence, read-out: Plant response rating, Crabgrass, Brazil
# Method in brief: as §2
# [8] = system: spring wheat; experiment: Test D preemergence; assay type: in vivo, Triticum aestivum; conditions: Triticum aestivum, pre-emergence
# Method in brief: as §1
# [9] = system: winter wheat; experiment: Test D preemergence; assay type: in vivo, Triticum aestivum; conditions: Triticum aestivum, pre-emergence
# Method in brief: as §1
# [10] = system: barnyardgrass; experiment: Test E postemergence; assay type: in vivo, Echinochloa crus-galli; conditions: Echinochloa crus-galli, post-emergence, read-out: Plant response rating, Barnyardgrass
# Method in brief: as §2
# [11] = system: bluegrass; experiment: Test D preemergence; assay type: in vivo, Poa annua; conditions: Poa annua, pre-emergence, scale 0-100, read-out: Plant response rating, Bluegrass
# Method in brief: as §1
# [12] = system: oilseed rape; experiment: Test D preemergence; assay type: in vivo, Brassica napus; conditions: Brassica napus, pre-emergence, scale 0-100, read-out: Plant response rating, Oilseed Rape
# Method in brief: as §1
# [13] = system: kochia; experiment: Test D postemergence; assay type: in vivo, Kochia scoparia; conditions: Bassia scoparia, post-emergence, scale 0 to 100 (0 no effect, 100 complete control), read-out: Plant response rating, Kochia
# Method in brief: as §1
# [14] = system: soybean; experiment: Test E postemergence; assay type: in vivo, Glycine max; conditions: Glycine max, post-emergence
# Method in brief: as §2
# [15] = Postemergence, 31 g ai/ha, scale 0 to 100
# [16] = Postemergence, 62 g ai/ha, scale 0 to 100
# [17] = Postemergence, 125 g ai/ha, scale 0 to 100
# [18] = Postemergence, 250 g ai/ha, scale 0 to 100
# [19] = postemergence, 16 g ai/ha, scale 0 to 100, 0 no effect, 100 complete control
structure (smiles),measurement,setting,value
"N#Cc1cccc(Oc2ncc(Br)cn2)c1-n1cc(C(F)(F)F)cn1 [Compound 59, 3-[(5-bromo-2-pyrimidinyl)oxy]-2-[4-(trifluoromethyl)-1H-pyrazol-1-yl]benzonitrile]",pest or weed control at 31 g/ha,[1]; 31 g ai/ha,100%
same,pest or weed control at 62 g/ha,[1]; 62 g ai/ha,100%
same,pest or weed control at 125 g/ha,[1]; 125 g ai/ha,95%
same,pest or weed control at 250 g/ha,[1]; 250 g ai/ha,95%
same,pest or weed control at 31 g/ha,[2]; 31 g ai/ha,20%
same,pest or weed control at 62 g/ha,[2]; 62 g ai/ha,30%
same,pest or weed control at 125 g/ha,[2]; 125 g ai/ha,35%
same,pest or weed control at 250 g/ha,[2]; 250 g ai/ha,35%
same,pest or weed control at 31 g/ha,"[3]; 31 g ai/ha, scale 0 (no effect) to 100 (complete control), read-out: Plant response rating, Speedwell",15%
same,pest or weed control at 62 g/ha,"[3]; 62 g ai/ha, scale 0-100, read-out: Plant response rating, Speedwell",100%
same,pest or weed control at 125 g/ha,"[3]; 125 g ai/ha, scale 0-100, read-out: Plant response rating, Speedwell",100%
same,pest or weed control at 250 g/ha,"[3]; 250 g ai/ha, scale 0-100, read-out: Plant response rating, Speedwell",100%
same,Cocklebur plant response rating,[4]; 31 g ai/ha,0
same,Cocklebur plant response rating,[4]; 62 g ai/ha,0
same,"Plant response rating, Cocklebur","[4]; 250 g ai/ha, scale 0 to 100, 0 no effect, 100 complete control",0
same,pest or weed control at 31 g/ha,[5]; 31 g ai/ha,100%
same,pest or weed control at 62 g/ha,[5]; 62 g ai/ha,100%
same,pest or weed control at 125 g/ha,[5]; 125 g ai/ha,100%
same,pest or weed control at 250 g/ha,[5]; 250 g ai/ha,100%
same,pest or weed control at 31 g/ha,[6]; 31 g ai/ha,65%
same,pest or weed control at 62 g/ha,[6]; 62 g ai/ha,85%
same,pest or weed control at 125 g/ha,[6]; 125 g ai/ha,100%
same,pest or weed control at 250 g/ha,[6]; 250 g ai/ha,100%
same,pest or weed control at 31 g/ha,[7]; [15],15%
same,pest or weed control at 62 g/ha,[7]; [16],20%
same,pest or weed control at 125 g/ha,[7]; [17],25%
same,pest or weed control at 250 g/ha,[7]; [18],50%
same,pest or weed control at 16 g/ha,[7]; [19],15%
same,plant injury at 31 g/ha,"[8]; 31 g ai/ha, scale 0 (no effect) to 100 (complete control), read-out: Plant response rating, Wheat, Spring",0%
same,plant injury at 62 g/ha,"[8]; 62 g ai/ha, scale 0-100, read-out: Plant response rating, Wheat, Spring",5%
same,plant injury at 125 g/ha,"[8]; 125 g ai/ha, scale 0-100, read-out: Plant response rating, Wheat, Spring",40%
same,plant injury at 250 g/ha,"[8]; 250 g ai/ha, scale 0-100, read-out: Plant response rating, Wheat, Spring",55%
same,plant injury at 31 g/ha,"[9]; 31 g ai/ha, scale 0 (no effect) to 100 (complete control), read-out: Plant response rating, Wheat, Winter",0%
same,plant injury at 62 g/ha,"[9]; 62 g ai/ha, scale 0-100, read-out: Plant response rating, Wheat, Winter",5%
same,plant injury at 125 g/ha,"[9]; 125 g ai/ha, scale 0-100, read-out: Plant response rating, Wheat, Winter",5%
same,plant injury at 250 g/ha,"[9]; 250 g ai/ha, scale 0-100, read-out: Plant response rating, Wheat, Winter",35%
same,pest or weed control at 31 g/ha,[10]; [15],0%
same,pest or weed control at 62 g/ha,[10]; [16],10%
same,pest or weed control at 125 g/ha,[10]; [17],15%
same,pest or weed control at 250 g/ha,[10]; [18],30%
same,pest or weed control at 16 g/ha,[10]; [19],0%
same,pest or weed control at 31 g/ha,[11]; 31 g ai/ha,5%
same,pest or weed control at 62 g/ha,[11]; 62 g ai/ha,10%
same,pest or weed control at 125 g/ha,[11]; 125 g ai/ha,35%
same,pest or weed control at 250 g/ha,[11]; 250 g ai/ha,85%
same,plant injury at 31 g/ha,[12]; 31 g ai/ha,65%
same,plant injury at 62 g/ha,[12]; 62 g ai/ha,60%
same,plant injury at 125 g/ha,[12]; 125 g ai/ha,100%
same,plant injury at 250 g/ha,[12]; 250 g ai/ha,100%
same,pest or weed control at 31 g/ha,[13]; 31 g ai/ha,95%
same,pest or weed control at 62 g/ha,[13]; 62 g ai/ha,95%
same,pest or weed control at 125 g/ha,[13]; 125 g ai/ha,95%
same,pest or weed control at 250 g/ha,[13]; 250 g ai/ha,95%
same,"plant response (crop injury) rating, soybean, 0-100 scale at 31 g/ha",[14]; [15],65%
same,"plant response (crop injury) rating, soybean, 0-100 scale at 62 g/ha",[14]; [16],95%
same,"plant response (crop injury) rating, soybean, 0-100 scale at 125 g/ha",[14]; [17],95%
same,"plant response (crop injury) rating, soybean, 0-100 scale at 250 g/ha",[14]; [18],98%
same,"plant response (crop injury) rating, soybean, 0-100 scale at 16 g/ha",[14]; [19],60%

# — US9695155B2, “Herbicidal substituted pyrimidinyloxy benzene compounds” (E. I. DU PONT DE NEMOURS AND COMPANY, priority 2013, dated 2017)
